According to US8853215B2, “Derivatives of N-acyl-N′-phenylpiperazine useful (inter alia) for the prophylaxis or treatment of diabetes” (Takeda Pharmaceutical Company Limited, priority 2009, dated 2014):

Assays:
RBP4 = RBP4 (Mus musculus (Mouse), UniProt Q00724); experiment: Single administration test in mice, plasma RBP4 by ELISA; assay type: in vivo; settings: male C57BL/6J or ICR mice, 50 mg/kg oral single dose, mean±SD; for RBP4 (% of initial/Control) 0 hr: 0 hr (just before the administration); for RBP4 (% of initial/Control) 4 hr: 4 hr after administration; for RBP4 (% of initial/Control) 7 hr: 7 hr after administration; for RBP4 (% of initial/Control) 24 hr: 24 hr after administration
Experimental: The action of the compounds of the present invention to reduce plasma RBP4 level was evaluated using the animal model shown below.
Male C57BL/6J and ICR mice were purchased from Charles River (Japan) and maintained on a normal diet (CE2, CLAE Japan, Inc.) and tap water. Animals were housed in a temperature-controlled room adjusted to a 12-hour light/12-hour dark cycle beginning at 7:00 and 19:00, respectively. All procedures were conducted according to the experimental animal care use committee of Takeda Pharmaceutical Company.
Male 6-12-week-old C57BL/6J or ICR mice were housed individually and fed CE2 for 4-6 days. After acclimatization, mice were divided into groups based on their body weight. Compounds were suspended in 0.5% (w/v) methylcellulose in water and given orally to mice at a dose of 50 mg/10 mL/kg of body weight (three to five mice per group). Blood samples were obtained from orbital vein with sodium heparin as an anticoagulant at time 0 hr (just before the administration), 4 hr, 7 hr, and 24 hr after the administration, followed by plasma separation by centrifugation. Plasma RBP4 levels were measured by enzyme-linked immunosorbent assay described in the following section.
Plasma samples were analyzed in duplicate for RBP4 by an enzyme-linked immunosorbent assay. Mouse recombinant RBP4 (Takeda Pharmaceutical Company) was used as standards, and the assay range was 0.313-20 ng/ml. Samples were diluted 10,000-fold with phosphate-buffered saline (PBS) (Sigma) containing 10% (w/v) BlockAce (Dainippon Sumitomo Pharma Co., Ltd). Rabbit anti-RBP4 polyclonal antibody (100 μL/well of 50 μg/mL, Hokudo Co, Ltd) was incubated in a 96-well plate (Nalge Nunc International K.K.) for overnight at 4° C. Subsequently, the plates were washed with PBS-T (Wako Pure Chemical Industries, Ltd.) and blocked with PBS containing 25% BlockAce for 1 hr at room temperature. After another washing with PBS-T, samples and standards were applied to the well, and the plates were incubated for 2 hr at room temperature. After a washing the wells, peroxidase-labeled (Dojindo Laboratories) anti-RBP4 (100 μL/well) was added to the wells, and then the plates were incubated for 1 hr at room temperature. After a final washing with PBS-T, substrate solution 3,3,5,5-tetramethylbenzidine (Sigma) was added to the wells, and the plates were placed in the dark for 5-20 min at room temperature. The reaction was stopped with 0.5 M sulphuric acid and the optical density was measured with a spectrophotometer at 450 nm. The changes in plasma RBP4 levels were expressed as % of initial/Control. All data are presented as mean±SD.

human RBP4 = human RBP4 (Homo sapiens (Human), UniProt P02753); experiment: Binding assay by Retinol-RBP4-TTR ELISA; settings: at 10 μM compound; read-out: human RBP4 binding inhibitory activity(% at 10 μM)
Experimental: The action of the compound of the present invention to inhibit binding of RBP4 and retinol and TTR was evaluated using the Retinol-RBP4-TTR ELISA system shown below.
1F: Binding Assay by Retinol-RBP4-TTR ELISA
This ELISA system detects a complex of RBP4 and TTR based on a retinol-dependent binding of RBP4 to TTR.
His-tagged human RBP4 used was prepared in the above-mentioned 1C.
Biotinylate human TTR used was prepared in the above-mentioned 1E.
Streptavidin (20 μl) (10 μg/ml Streptavidin type II (Wako Pure Chemical Industries, Ltd.), 10 mM Tris-HCl (pH 7.5), 10 mM NaCl) was added to a 384 well black plate (Nunc MaxiSorp, Thermo Fisher Scientific Inc.), and the plate was subjected to centrifugation (1000 rpm, 1 min) and coated overnight at 4° C. The plate was washed twice with PBST (PBS, 0.05% Tween 20, 100 μl/well) and blocked with 25% Block Ace (Snow Brand Milk Products Co., Ltd., PBS, 100 μl/well). The plate was subjected to centrifugation (1000 rpm, 1 min) and incubated at room temperature for 4 hr or overnight at 4° C. The plate was washed twice with PBST (PBS, 0.05% Tween 20, 100 μl/well), and biotinylate human TTR (stock solution concentration 1.0 mg/ml) diluted 750-fold with PBST was added at 20 μl/well. The plate was subjected to centrifugation (1000 rpm, 1 min) and stood still at room temperature for 1.5 hr or overnight at 4° C. The plate was washed 3 times with PBST (100 μl/well), and His-tagged human RBP4 (stock solution concentration 0.96 mg/ml) diluted 4000-fold with a reaction buffer (50 mM Tris-HCl, 150 mM NaCl, 0.005% Tween 20, 1 mM DTT, 0.1% BSA) was added at 10 μl/well. The dilution series (8 doses from 10 mM, 200-fold concentration) of the compound was prepared with DMSO, and 1 μl of each was added to a reaction buffer (200 μl) containing retinol (50 nM) (Sigma-Aldrich Co.). A reaction buffer (200 μl) containing retinol and added with DMSO was used as a positive control, and reaction buffer (200 μl) free of retinol and added with DMSO was used as a negative control. Mixed solutions of retinol and the compound were added to the plate at 15 μl/well. The plate was stirred in a platemixer subjected to centrifugation (1000 rpm, 1 min) and reacted at room temperature for 2 hr. A 35% Block Ace solution diluted with the reaction buffer was added at 10 μl/well, centrifuged (1000 rpm, 1 min) and reacted at room temperature for 30 min. The plate was washed 3 times with PBST (100 μl/well) and SuperSignal ELISA Femto Maximum Sensitivity Substrate reagent (PIERCE, Thermo Fisher Scientific Inc.) was added at 30 μl/well, and the luminescence was measured by a platereader (Wallac).
The binding inhibitory activity of the compound was determined by 100×(positive control value-test compound value)/(positive control value-negative control value). The binding activity (IC50) was calculated from the binding inhibitory rate at each compound concentration using a graph drawing software, GraphPad Prism (GraphPad Software Inc.).

CC(C)(C)c1ccccc1N1CCN(C(=O)C(=O)NCC(=O)O)CC1 [Example 87, N-{[4-(2-tert-Butylphenyl)piperazin-1-yl](oxo)acetyl}glycine]
RBP4 (% of initial/Control) 0 hr (RBP4): 100.0 ± 13.6 % of initial/Control | RBP4 (% of initial/Control) 4 hr (RBP4): 36.6 ± 1.0 % of initial/Control | RBP4 (% of initial/Control) 7 hr (RBP4): 38.1 ± 1.3 % of initial/Control | RBP4 (% of initial/Control) 24 hr (RBP4): 80.3 ± 18.4 % of initial/Control | inhibition at 10 µM (human RBP4): 100%

CC(C)(C)c1ccccc1N1CCN(C(=O)C(=O)N2CCC(C(=O)O)CC2)CC1 [Example 89, 1-{[4-(2-tert-Butylphenyl)piperazin-1-yl](oxo)acetyl}piperidine-4-carboxylic acid]
RBP4 (% of initial/Control) 0 hr (RBP4): 100.0 ± 34.2 % of initial/Control | RBP4 (% of initial/Control) 4 hr (RBP4): 42.5 ± 6.0 % of initial/Control | RBP4 (% of initial/Control) 7 hr (RBP4): 46.6 ± 4.3 % of initial/Control | RBP4 (% of initial/Control) 24 hr (RBP4): 105.9 ± 27.6 % of initial/Control | inhibition at 10 µM (human RBP4): 99%

CC(C)(C)c1ccccc1N1CCN(C(=O)Cn2cnnn2)CC1 [Example 94, 1-(2-tert-Butylphenyl)-4-(1H-tetrazol-1-ylacetyl)piperazine]
RBP4 (% of initial/Control) 0 hr (RBP4): 100.0 ± 21.7 % of initial/Control | RBP4 (% of initial/Control) 4 hr (RBP4): 45.7 ± 0.8 % of initial/Control | RBP4 (% of initial/Control) 7 hr (RBP4): 58.9 ± 5.1 % of initial/Control | RBP4 (% of initial/Control) 24 hr (RBP4): 89.2 ± 11.6 % of initial/Control | inhibition at 10 µM (human RBP4): 100%

CC(C)(C)c1ccccc1N1CCN(C(=O)c2ncoc2CCC(=O)O)CC1 [Example 178, 3-(4-{[4-(2-tert-Butylphenyl)piperazin-1-yl]carbonyl}-1,3-oxazol-5-yl)propanoic acid]
RBP4 (% of initial/Control) 0 hr (RBP4): 100.0 ± 12.8 % of initial/Control | RBP4 (% of initial/Control) 4 hr (RBP4): 70.1 ± 1.8 % of initial/Control | RBP4 (% of initial/Control) 7 hr (RBP4): 67.0 ± 2.6 % of initial/Control | RBP4 (% of initial/Control) 24 hr (RBP4): 123.3 ± 14.2 % of initial/Control | inhibition at 10 µM (human RBP4): 100%

CC(C)(C)c1cc(Cl)ccc1N1CCN(C(=O)C(=O)O)CC1 [Example 180, [4-(2-tert-Butyl-4-chlorophenyl)piperazin-1-yl](oxo)acetic acid]
RBP4 (% of initial/Control) 0 hr (RBP4): 100.0 ± 23.0 % of initial/Control | RBP4 (% of initial/Control) 4 hr (RBP4): 63.0 ± 2.0 % of initial/Control | RBP4 (% of initial/Control) 7 hr (RBP4): 61.0 ± 2.2 % of initial/Control | RBP4 (% of initial/Control) 24 hr (RBP4): 93.0 ± 9.6 % of initial/Control | inhibition at 10 µM (human RBP4): 100%

CC(C)(C)c1ccccc1N1CCN(C(=O)C(=O)N2CCC(C(=O)O)C2)CC1 (stereo not drawn) [Example 191, 1-{[4-(2-tert-Butylphenyl)piperazin-1-yl](oxo)acetyl}pyrrolidine-3-carboxylic acid]
RBP4 (% of initial/Control) 0 hr (RBP4): 100.0 ± 8.0 % of initial/Control | RBP4 (% of initial/Control) 4 hr (RBP4): 65.0 ± 2.2 % of initial/Control | RBP4 (% of initial/Control) 7 hr (RBP4): 61.2 ± 2.3 % of initial/Control | RBP4 (% of initial/Control) 24 hr (RBP4): 127.6 ± 40.9 % of initial/Control | inhibition at 10 µM (human RBP4): 100%

CC(C)(C)c1ccccc1N1CCN(C(=O)C(=O)Nc2ccc(CCC(=O)O)cc2)CC1 [Example 197, 3-[4-({[4-(2-tert-Butylphenyl)piperazin-1-yl](oxo)acetyl}amino)phenyl]propanoic acid]
RBP4 (% of initial/Control) 0 hr (RBP4): 100.0 ± 22.3 % of initial/Control | RBP4 (% of initial/Control) 4 hr (RBP4): 72.2 ± 3.6 % of initial/Control | RBP4 (% of initial/Control) 7 hr (RBP4): 67.0 ± 1.8 % of initial/Control | RBP4 (% of initial/Control) 24 hr (RBP4): 91.3 ± 15.9 % of initial/Control | inhibition at 10 µM (human RBP4): 100%

CC(C)(C)c1ccccc1N1CCN(C(=O)C(=O)Nc2ccc(OCC(=O)O)cc2)CC1 [Example 201, [4-({[4-(2-tert-Butylphenyl)piperazin-1-yl](oxo)acetyl}amino)phenoxy]acetic acid]
RBP4 (% of initial/Control) 0 hr (RBP4): 100.0 ± 9.8 % of initial/Control | RBP4 (% of initial/Control) 4 hr (RBP4): 65.0 ± 0.7 % of initial/Control | RBP4 (% of initial/Control) 7 hr (RBP4): 60.3 ± 1.0 % of initial/Control | RBP4 (% of initial/Control) 24 hr (RBP4): 100.2 ± 13.6 % of initial/Control | inhibition at 10 µM (human RBP4): 99%

CC(C)(C)c1ccccc1N1CCN(C(=O)C(=O)NCCc2ccc(C(=O)O)cc2)CC1 [Example 203, 4-[2-({[4-(2-tert-Butylphenyl)piperazin-1-yl](oxo)acetyl}amino)ethyl]benzoic acid]
RBP4 (% of initial/Control) 0 hr (RBP4): 100 ± 2.82 % of initial/Control | RBP4 (% of initial/Control) 4 hr (RBP4): 43.4 ± 1.8 % of initial/Control | RBP4 (% of initial/Control) 7 hr (RBP4): 37.2 ± 1.0 % of initial/Control | RBP4 (% of initial/Control) 24 hr (RBP4): 107.9 ± 15.6 % of initial/Control | inhibition at 10 µM (human RBP4): 100%

Cc1nc(C(=O)N2CCN(c3ccccc3C(C)(C)C)CC2)cn1CC(=O)O [Example 205, (4-{[4-(2-tert-Butylphenyl)piperazin-1-yl]carbonyl}-2-methyl-1H-imidazol-1-yl)acetic acid]
RBP4 (% of initial/Control) 0 hr (RBP4): 100.0 ± 18.9 % of initial/Control | RBP4 (% of initial/Control) 4 hr (RBP4): 66.3 ± 5.7 % of initial/Control | RBP4 (% of initial/Control) 7 hr (RBP4): 75.0 ± 10.8 % of initial/Control | RBP4 (% of initial/Control) 24 hr (RBP4): 125.7 ± 20.9 % of initial/Control | inhibition at 10 µM (human RBP4): 100%

CC(C)(C)c1cc(Cl)ccc1N1CCN(C(=O)CC(=O)O)CC1 [Example 207, 3-[4-(2-tert-Butyl-4-chlorophenyl)piperazin-1-yl]-3-oxopropanoic acid]
RBP4 (% of initial/Control) 0 hr (RBP4): 100.0 ± 27.4 % of initial/Control | RBP4 (% of initial/Control) 4 hr (RBP4): 43.1 ± 1.7 % of initial/Control | RBP4 (% of initial/Control) 7 hr (RBP4): 37.6 ± 0.7 % of initial/Control | RBP4 (% of initial/Control) 24 hr (RBP4): 52.0 ± 2.8 % of initial/Control | inhibition at 10 µM (human RBP4): 100%

CC(C)(C)c1cc(Cl)ccc1N1CCN(C(=O)c2ccc(OCC(=O)O)cn2)CC1 [Example 210, [(6-{[4-(2-tert-Butyl-4-chlorophenyl)piperazin-1-yl]carbonyl}pyridin-3-yl)oxy]acetic acid]
RBP4 (% of initial/Control) 0 hr (RBP4): 100.0 ± 10.5 % of initial/Control | RBP4 (% of initial/Control) 4 hr (RBP4): 55.3 ± 4.0 % of initial/Control | RBP4 (% of initial/Control) 7 hr (RBP4): 54.9 ± 8.8 % of initial/Control | RBP4 (% of initial/Control) 24 hr (RBP4): 97.6 ± 24.5 % of initial/Control | inhibition at 10 µM (human RBP4): 99%
